From EP4534542A1, “THIOSUGAR BASED ISOTHIOCYANATES AND USES THEREOF” (Universidad de Sevilla, priority 2023, dated 2025) come the findings set out here.

Where two headings read alike, the source gives them in different places.

Assay [1] concerns Jurkat (Acute lymphoblastic leukaemia). In words: Antileukemic activity, cell viability (CCK-8 Cell Counting Kit). It is filed as cell-based. As to conditions: Homo sapiens, 18 h incubation, compounds 0 - 100 µM, read-out: IC50 Cancer cells Jurkat (Acute lymphoblastic leukaemia). As for the experimental part: (§1) HaCaT cells (human keratinocytes, reference control), A549 (human lung adenocarcinoma cells), MeWo (human melanoma cells) and T24 (human bladder cancer cells) were purchased from Cell Lines Service (CLS). Cells were grown in Dulbecco's Modified Eagle's Medium (DMEM) supplemented with 100 U/mL penicillin, 100 µg/mL streptomycin and 10% fetal bovine serum. HL60 cell line (acute myeloid leukaemia, AML) was obtained from ATCC. It was cultured in IMDM medium supplemented with 100 U/mL penicillin, 100 µg/mL streptomycin and 10% fetal bovine serum. U937 (AML) and Jurkat cells (ALL) were obtained from DMSZ, Braunschweig, Germany, and ATCC, respectively. They were cultivated in RPMI medium, supplemented with 100 U/mL penicillin, 100 µg/mL streptomycin and 10% fetal bovine serum. OPM-2 cell line (MM), was obtained from DMSZ, Braunschweig, Germany and cultured in RPMI medium supplemented with 100 U/mL penicillin, 100 µg/mL streptomycin, 10% fetal bovine serum and 1X GlutaMAXTM. All cell lines were cultured at 37 ° C with 5% CO2 in a humidified incubator. Cell culture reagents were purchased from Biowest.
(§2) For the leukemic cell lines, the CCK-8 Cell Counting Kit (Dojindo Molecular Technologies) was used according to manufacturers instructions. Briefly, 50.000 cells were seeded in each well of a 96 well plate, and they were treated with increased amounts (0 - 100 µM) of each of the compounds, and incubated for 18 h at 37 °C, 5% CO2. After this period, 7 µl of the CCK-8 reagent were added to each well, and cells were further incubated for 2 h at 37 °C, 5% CO2. OD at 450 nm was obtained using a MultiskanTM GO microplate reader (Thermo Fisher Scientific, Waltham, MA, EE.UU). Cell viability in each condition was normalized to the measurement obtained in the non treated samples (100%), and were represented as average ± standard error of the mean (SEM).

The subject of assay [2] is HL60 (Acute myeloid leukaemia). Described as above. It is filed as cell-based. As to conditions: Homo sapiens, HL-60; 18 h incubation, compounds 0 - 100 µM; read-out: IC50 Cancer cells HL60 (Acute myeloid leukaemia). The method, then: as §1, §2
The test system of a further assay is OPM-2 (Multiple myeloma). The description is as above. Type of assay: cell-based. The note with it: Homo sapiens, 18 h incubation, compounds 0 - 100 µM, read-out: IC50 Cancer cells OPM-2 (Multiple myeloma). The method, then:
as §1, §2

The subject of assay [3] is U937 (Acute myeloid leukaemia). The description is as above. It is filed as cell-based. As to conditions: Homo sapiens, U-937; 18 h incubation, compounds 0 - 100 µM; read-out: IC50 Cancer cells U937 (Acute myeloid leukaemia). As for the experimental part: as §1, §2
A further assay relates to HaCaT cells. In words: Cell viability assay (resazurin), cytotoxicity in non-malignant cells. Type of assay: cell-based, human. As to conditions: Homo sapiens, HaCaT, read-out: IC50 HaCaT (Non-malignant keratinocyte). The method, then: (§3) Cells were grown in Dulbecco's Modified Eagle's Medium (DMEM) supplemented with 100 U/mL penicillin, 100 µg/mL streptomycin and 10% fetal bovine serum. HL60 cell line (acute myeloid leukaemia, AML) was obtained from ATCC. It was cultured in IMDM medium supplemented with 100 U/mL penicillin, 100 µg/mL streptomycin and 10% fetal bovine serum. U937 (AML) and Jurkat cells (ALL) were obtained from DMSZ, Braunschweig, Germany, and ATCC, respectively. They were cultivated in RPMI medium, supplemented with 100 U/mL penicillin, 100 µg/mL streptomycin and 10% fetal bovine serum. […] All cell lines were cultured at 37 ° C with 5% CO2 in a humidified incubator. Cell culture reagents were purchased from Biowest. Exponentially growing cells (3000-6000 cells per well) were seeded in 96-well plates. After 24 hours, cells were treated with the drugs for 72 hours. The cell viability was then estimated with the resazurin assay, a colorimetric technique based on the capability of viable cells to reduce the blue reagent resazurin to the pink-soluble product resorufin. The amount of resorufin produced is proportional to the number of viable cells. Briefly, cells were washed once with phosphate buffered saline (PBS) and 150 µL resazurin (20 µg/mL in medium) was added to each well. The plates were incubated for 3 hours at 37 °C, 5% CO2, and finally optical densities were measured at 540 and 620 nm with a multiwell plate spectrophotometer reader (Multiskan EX Labsystems). Cell viability was calculated as a percentage compared to non-treated cells. The results were expressed as the means ± standard error of the mean (SEM). All data are from at least three independent experiments.
(In general: The colour change of resazurin is a common sign of viable cells or microbes.)

Assay [4] concerns A549 (human lung adenocarcinoma cells). As to the kind of experiment: Cell viability assay (resazurin), cytotoxic activity against solid tumours. Type of assay: cell-based. As to conditions: for IC50: Homo sapiens, read-out: IC50 A549 (Lung adenocarcino ma); for S.I. A549 (Selectivity Index): IC50 HaCaT divided by IC50 A549, mean of independent experiments. As for the experimental part: as §3, with “The plates were incubated for 3 hours at 37 °C, 5% CO2, and finally optical densities were measured at 540 and 620 nm with a multiwell plate spectrophotometer reader (Multiskan EX Labsystems).” left out, “experiments. The selectivity index (S.I.) values were calculated over each cancer cell line as the mean of the IC50 value in the non-malignant cell line (HaCaT) by the IC50 in the respective cancer cell line obtained in each independent experiment.” for “experiments.”

The test system of assay [5] is T24 (human bladder cancer cells). Described as above. It is filed as cell-based. As to conditions: for IC50: Homo sapiens, read-out: IC50 T24 (Bladder cancer); for S.I. T24 (Selectivity Index): IC50 HaCaT divided by IC50 T24, mean of independent experiments. The method, then:
as §3, with “The plates were incubated for 3 hours at 37 °C, 5% CO2, and finally optical densities were measured at 540 and 620 nm with a multiwell plate spectrophotometer reader (Multiskan EX Labsystems).” left out, “experiments. The selectivity index (S.I.) values were calculated over each cancer cell line as the mean of the IC50 value in the non-malignant cell line (HaCaT) by the IC50 in the respective cancer cell line obtained in each independent experiment.” for “experiments.”

Assay [6] relates to MeWo (human melanoma cells). Described as above. Type of assay: cell-based. The note with it: for IC50: Homo sapiens, MeWo, read-out: IC50 MeWo (Melanoma; BRAF WT); for S.I. MeWo (Selectivity Index): IC50 HaCaT divided by IC50 MeWo, mean of independent experiments. As for the experimental part: as §3, with “The plates were incubated for 3 hours at 37 °C, 5% CO2, and finally optical densities were measured at 540 and 620 nm with a multiwell plate spectrophotometer reader (Multiskan EX Labsystems).” left out, “experiments. The selectivity index (S.I.) values were calculated over each cancer cell line as the mean of the IC50 value in the non-malignant cell line (HaCaT) by the IC50 in the respective cancer cell line obtained in each independent experiment.” for “experiments.”

The mark [7] stands for this setting: 72 h treatment, resazurin assay, mean ± SEM.
[8] abbreviates: A549, 72 h treatment, resazurin assay, mean ± SEM.

The term IC50 denotes the concentration at which inhibition is half-maximal. `CCS(=O)(=O)[C@H]1O[C@H](COC(C)=O)[C@@H](OC(C)=O)[C@H](N=C=S)[C@H]1OC(C)=O` [Compound 20α, Ethyl 2,4,6-tri-O-acetyl-3-isothiocyanato-1,3-dideoxy-1-sulfonyl-α-D-glucopyranose]: the IC50 in assay [1] is 30.3 µM; in assay [2] it was 19.9 µM; with OPM-2 (Multiple myeloma), 71.9 µM; in assay [3], 74 µM; in the assay on HaCaT cells (72 h), over 100 µM; in assay [4] (A549, 72 h), 92.4 ± 25.7 µM. In addition, the figures for the IC50 in assay [5] (72 h) and in assay [6] (72 h) were 55.8 ± 6 µM and 95.3 ± 44.8 µM, respectively. Also, the “S.I. A549 (Selectivity Index)” value in assay [4] is recorded as 2.1±0.1. Also, the “S.I. T24 (Selectivity Index)” value in assay [5] turned out to be 2.9±0.8. For the same molecule, the “S.I. MeWo (Selectivity Index)” value in assay [6] was found to be 1.9±0.2.

Regarding `CCS[C@@H]1O[C@H](COC(C)=O)[C@@H](OC(C)=O)[C@H](N=C=S)[C@H]1OC(C)=O` [Compound 14β, Ethyl 2,4,6-tri-O-acetyl-3-isothiocyanato-1,3-dideoxy-1-thio-β-D-glucopyranoside], the IC50 in assay [1] was 17.8 µM; in assay [2] it was about 13 µM; in the assay with OPM-2 (Multiple myeloma) it was 20.1 µM; in assay [3], about 26.7 µM; in the assay with HaCaT cells (setting [7]), 72.2 ± 13.2 µM; in assay [4] (setting [8]), 45.1 ± 6.8 µM. Also, the results for the IC50 in assay [5] (setting [7]) and in assay [6] (setting [7]) were 42 ± 5.7 µM and 49.9 ± 8.5 µM, respectively. In addition, in assay [4], the “S.I. A549 (Selectivity Index)” value is 1.6±0.1. Moreover, in assay [5], the “S.I. T24 (Selectivity Index)” value is 1.7±0.2. In addition, the “S.I. MeWo (Selectivity Index)” value in assay [6] worked out at 1.5±0.2.

Regarding `CC(=O)OC[C@H]1O[C@@H]([S@@+]([O-])c2ccccc2)[C@H](OC(C)=O)[C@@H](N=C=S)[C@@H]1OC(C)=O` [(SS)-18β, Phenyl 2,4,6-tri-O-acetyl-3-isotiocianato-1,3-dideoxy-1[(S)-sulfinyl]-β-D-glucopyranose], the IC50 in assay [1] is 20 µM; in assay [2], about 6.6 µM; with OPM-2 (Multiple myeloma), 16.6 µM; in assay [3], about 43.3 µM; with HaCaT cells (setting [7]), 24.2 ± 3.9 µM; in assay [4] (setting [8]), 16.8 ± 2.9 µM. Besides, the IC50 in assay [5] (setting [7]) is 12.9 ± 3 µM; in assay [6] (setting [7]), 16 ± 2.6 µM. The “S.I. A549 (Selectivity Index)” value in assay [4] stood at 1.5±0.1. In addition, in assay [5], the “S.I. T24 (Selectivity Index)” value was determined as 2.0±0.3. The “S.I. MeWo (Selectivity Index)” value in assay [6] came out at 1.5±0.1.

In the case of `CCS[C@H]1O[C@H](COC(C)=O)[C@@H](OC(C)=O)[C@H](N=C=S)[C@H]1OC(C)=O` [Compound 14α, Ethyl 2,4,6-tri-O-acetyl-3-isothiocyanato-1,3-dideoxy-1-thio-α-D-glucopyranoside], the IC50 in assay [1] was determined as 12.5 µM; in assay [2], 9.7 µM; with OPM-2 (Multiple myeloma), 17 µM; in assay [3], 25.1 µM; in the assay on HaCaT cells (setting [7]), 51.3 ± 1.8 µM; in assay [4] (setting [8]) it was 40.6 ± 9 µM. Further, the IC50 came to 40.7 ± 6.9 µM in assay [5] (setting [7]) and 46.4 ± 7.6 µM in assay [6] (setting [7]). In assay [4], the “S.I. A549 (Selectivity Index)” value amounted to 1.5±0.3. Moreover, the “S.I. T24 (Selectivity Index)” value in assay [5] came to 1.4±0.2. In addition, the “S.I. MeWo (Selectivity Index)” value in assay [6] was found to be 1.2±0.2.

With `CS[C@@H]1O[C@H](COC(C)=O)[C@@H](OC(C)=O)[C@H](N=C=S)[C@H]1OC(C)=O` [Compound 13β, Methyl 2,4,6-tri-O-acetyl-3-isothiocyanato-1,3-dideoxy-1-thio-β-D-glucopyranoside], the IC50 was 18.7 µM in assay [1]; about 13 µM in assay [2]; 24.9 µM with OPM-2 (Multiple myeloma); about 24.2 µM in assay [3]; 70 ± 4.6 µM in the assay on HaCaT cells (setting [7]); 51.4 ± 9.2 µM in assay [4] (setting [8]). Besides, the concentration for half-maximal inhibition (IC50) in assay [5] (setting [7]) is 42 ± 7.5 µM; in assay [6] (setting [7]), 55.9 ± 4.8 µM. In addition, the “S.I. A549 (Selectivity Index)” value in assay [4] was determined as 1.5±0.2. The “S.I. T24 (Selectivity Index)” value in assay [5] is 1.8±0.2. Moreover, the “S.I. MeWo (Selectivity Index)” value in assay [6] amounted to 1.3±0.0.

For `CC(=O)OC[C@H]1O[C@@H](S(C)(=O)=O)[C@H](OC(C)=O)[C@@H](N=C=S)[C@@H]1OC(C)=O` [Compound 19β, Methyl 2,4,6-tri-O-acetyl-3-isothiocyanato-1,3-dideoxy-1-sulfonyl-β-D-glucopyranose], the IC50 in assay [1] is 37.1 µM; in assay [2] it was about 24.7 µM; with OPM-2 (Multiple myeloma), about 48.5 µM; in assay [3], 45.7 µM; in the assay on HaCaT cells (72 h) it was 138 ± 22.5 µM; in assay [4] (A549, 72 h), 98 ± 24 µM. Further, the figures for the 50% inhibitory concentration (IC50) in assay [5] (72 h) and in assay [6] (72 h) were 51.8 ± 2.7 µM and 77.1 ± 14.4 µM, respectively. For the same molecule, the “S.I. A549 (Selectivity Index)” value in assay [4] was 1.5±0.1. Moreover, in assay [5], the “S.I. T24 (Selectivity Index)” value came to 2.6±0.3. Further, the “S.I. MeWo (Selectivity Index)” value in assay [6] was 1.9±0.3.

Take `CS(=O)(=O)CCCN=C=S` [Compound 6, 1-isothiocyanato-3-(methylsulfonyl)propane, reference compound]: the IC50 in assay [1] came to 10.3 µM; in assay [2], 7 µM; with OPM-2 (Multiple myeloma), 13 µM; in assay [3] it was 8.4 µM; in the assay with HaCaT cells (72 h), 35.9 ± 7.8 µM; in assay [4] (A549, 72 h), 25.2 ± 9.3 µM. The values for the IC50 in assay [5] (72 h) and in assay [6] (72 h) were 10.7 ± 2.2 µM and 29.5 ± 8.7 µM, respectively. In addition, the “S.I. A549 (Selectivity Index)” value in assay [4] turned out to be 1.9±0.4. The “S.I. T24 (Selectivity Index)” value in assay [5] is reported as 3.3±0.1. The “S.I. MeWo (Selectivity Index)” value in assay [6] is listed as 1.3±0.2.
